Measured values reported in US6706740B2, “Fungicidal heterocyclic aromatic amides and their compositions, methods of use and preparation” (Dow AgroSciences LLC, priority 1999, dated 2004).
Read-outs that look alike come from different tables or passages of the source.

Key:
[1] = system: Magnaporthe grisea (Pyricularia oryzae—PYRIOR); experiment: microbe, parasite or virus in culture; format: cell-based; details: Pyricularia oryzae, read-out: PYRIOR in vitro Growth Inhibition
[2] = system: Rhizoctonia solani (RHIZSO); experiment: microbe, parasite or virus in culture; format: cell-based; details: Rhizoctonia solani, read-out: RHIZSO in vitro Growth Inhibition
[3] = system: Mycosphaerella graminicola (Septoria tritici—SEPTTR); experiment: In vitro fungal growth inhibition, Mycosphaerella graminicola (SEPTTR); format: cell-based; details: Zymoseptoria tritici, read-out: SEPTTR in vitro Growth Inhibition
[4] = system: Stagonospora nodorum (Leptosphaeria nodorum—LEPTNO); experiment: In vitro fungal growth inhibition, Stagonospora nodorum (LEPTNO); format: cell-based; details: Leptosphaeria, read-out: LEPTNO in vitro Growth Inhibition
Ustilago maydis (USTIMA) = experiment: microbe, parasite or virus in culture; format: cell-based; details: Mycosarcoma maydis, read-out: USTIMA in vitro Growth Inhibition
[5] = system: Phytophthora infestans (PHYTIN); experiment: microbe, parasite or virus in culture; format: cell-based; details: Phytophthora infestans, read-out: PHYTIN in vitro Growth Inhibition
[6] = system: Phytophthora infestans—PHYTIN; experiment: whole plant or invertebrate; format: in vivo; details: Phytophthora, in Solanum lycopersicum, 24 h, read-out: PHYTIN in vivo 1 Day Protectant
[7] = system: Puccinia recondita—PUCCRT; experiment: Brown Rust of Wheat, in vivo whole plant, 24 Hour Protectant; details: for pest or weed control at 100 ppm: Puccinia, control of fungal infection vs untreated plants, read-out: PUCCRT in vivo 1 Day Protectant
Erysiphe graminis—ERYSGT = experiment: Powdery Mildew of Wheat, in vivo whole plant, 24 Hour Protectant; details: for pest or weed control at 100 ppm: Erysiphe, control of fungal infection vs untreated plants, read-out: ERYSGT in vivo 1 Day Protectant
Septoria tritici—SEPTTR = experiment: Leaf Blotch of Wheat, in vivo whole plant, 24 Hour Protectant; details: for pest or weed control at 100 ppm: Zymoseptoria tritici, 24 h, read-out: SEPTTR in vivo 1 Day Protectant
[8] = system: Leptosphaeria nodorum—LEPTNO; experiment: Glume Blotch of Wheat, in vivo whole plant, 24 Hour Protectant; details: for pest or weed control at 100 ppm: Leptosphaeria, read-out: LEPTNO in vivo 1 Day Protectant
[9] = 100 ppm spray, 24 hour protectant, wheat
[10] = 100 ppm spray, 24 hour protectant, wheat, control of fungal infection vs untreated plants
[11] = wheat plants sprayed at 100 ppm, inoculated after 24 hours
[12] = wheat plants sprayed at 100 ppm, inoculated after 24 hours, control of fungal infection vs untreated plants
[13] = 100 ppm spray, wheat, 24 hour protectant, % control of fungal infection vs untreated plants
[14] = 100 ppm spray, wheat, 24 hour protectant
[15] = 100 ppm spray, wheat, 24 hour protectant, control of fungal infection vs untreated plants

Structure (SMILES)	inhibition at 25 ppm [1]	inhibition at 25 ppm [2]	inhibition at 25 ppm ([3]; 25 ppm in growth medium)	inhibition at 25 ppm ([4]; 25 ppm in growth medium)	inhibition at 25 ppm (Ustilago maydis (USTIMA))	inhibition at 25 ppm [5]	pest or weed control at 100 ppm [6]	other results
COc1ccnc(C(=O)NCCCc2cccnc2)c1O [Compound 243]	< 80%	< 80%	< 80%	< 80%	< 80%	< 80%	< 25%	pest or weed control at 100 ppm [7, 9]: 25 to 74%; pest or weed control at 100 ppm (Erysiphe graminis—ERYSGT; [9]): < 25%; pest or weed control at 100 ppm (Septoria tritici—SEPTTR; [10]): 25 to 74%; pest or weed control at 100 ppm [8, 10]: 25 to 74%
COc1ccnc(C(=O)NC2C(=O)c3ccc(-c4ccco4)cc3OC2C)c1O (centres unmarked) [Compound 323]	> 80%	> 80%	> 80%	> 80%	< 80%	< 80%	< 25%	pest or weed control at 100 ppm [7, 9]: 25 to 74%; pest or weed control at 100 ppm (Erysiphe graminis—ERYSGT; [9]): < 25%; SEPTTR in vivo 1 Day Protectant (Septoria tritici—SEPTTR; [10]): + +; LEPTNO in vivo 1 Day Protectant [8, 10]: + +
COC(=O)C(COC(=O)C(C)c1ccccc1)NC(=O)c1nccc(OC)c1OC(C)=O (centres unmarked) [Compound 581]	< 80%	< 80%	–	–	< 80%	< 80%	< 25%	inhibition at 25 ppm ([3]; 25 ppm in the growth medium): < 80%; inhibition at 25 ppm ([4]; 25 ppm in the growth medium): < 80%; pest or weed control at 100 ppm [7, 11]: < 25%; pest or weed control at 100 ppm (Erysiphe graminis—ERYSGT; [11]): < 25%; pest or weed control at 100 ppm (Septoria tritici—SEPTTR; [12]): 25 to 74%; pest or weed control at 100 ppm [8, 12]: 25 to 74%
CCC(C)C(=O)O[C@H]1[C@H](C)OC(=O)[C@@H](NC(=O)c2nccc(OC)c2OC(C)=O)COC(=O)[C@@H]1Cc1ccccc1 (some centres unmarked) [Compound 701]	< 80%	< 80%	> 80%	> 80%	< 80%	< 80%	< 25%	PUCCRT in vivo 1 Day Protectant [7, 13]: + +; ERYSGT in vivo 1 Day Protectant (Erysiphe graminis—ERYSGT; [13]): + +; SEPTTR in vivo 1 Day Protectant (Septoria tritici—SEPTTR; [13]): + +; LEPTNO in vivo 1 Day Protectant [8, 13]: + +
CO/N=C(/c1ccc(NC(=O)c2nccc(OC)c2O)cc1)c1cccc(C(F)(F)F)c1 [Compound 408]	< 80%	< 80%	< 80%	> 80%	< 80%	< 80%	< 25%	pest or weed control at 100 ppm [7, 14]: < 25%; pest or weed control at 100 ppm (Erysiphe graminis—ERYSGT; [14]): 25 to 74%; pest or weed control at 100 ppm (Septoria tritici—SEPTTR; [15]): 25 to 74%; pest or weed control at 100 ppm [8, 15]: 25 to 74%
O=C(Nc1cccc(Oc2ccccc2C(F)(F)F)c1)c1nc(Br)ccc1O [Compound 494]	< 80%	< 80%	–	–	< 80%	< 80%	< 25%	inhibition at 25 ppm ([3]; 25 ppm in the growth medium): < 80%; inhibition at 25 ppm ([4]; 25 ppm in the growth medium): < 80%; pest or weed control at 100 ppm [7, 11]: < 25%; pest or weed control at 100 ppm (Erysiphe graminis—ERYSGT; [11]): < 25%; pest or weed control at 100 ppm (Septoria tritici—SEPTTR; [12]): 25 to 74%; pest or weed control at 100 ppm [8, 12]: < 25%
COc1ccnc(C(=O)Nc2ccc(C(=O)c3ccc(C(F)(F)F)cc3)cc2)c1O [Compound 406]	< 80%	< 80%	< 80%	< 80%	< 80%	< 80%	< 25%	pest or weed control at 100 ppm [7, 14]: < 25%; pest or weed control at 100 ppm (Erysiphe graminis—ERYSGT; [14]): 25 to 74%; pest or weed control at 100 ppm (Septoria tritici—SEPTTR; [15]): 25 to 74%; pest or weed control at 100 ppm [8, 15]: 25 to 74%
